Literature values, collected in patent US20230218659A1, “Selenium-Based Compositions and Therapeutic Methods” (Hess Pharmaceuticals, Inc, priority 2020, published 2023).

Conditions: 200 µg/day selenium with or without 400 IU/day vitamin E; 35,533 men aged 50 years or older; after 5.5 years

## [Se] [selenium]
  association between prostate cancer risk and supplementation: no association
